From patent US11999727B2 (Tango Therapeutics, Inc., priority 2020, dated 2024) come the findings set out here.

Experiment [1] concerns the target T1, PRMT5 (Homo sapiens, UniProt O14744).
T1 construct: purchased Viva (custom protein)
In words: PRMT5 biochemical IC50 assay with SAM as cofactor. As to conditions: PRMT5, SAM as cofactor; read-out: SAM IC50.

In experiment [2] the test system is HAP1 MTAP-deleted cell line. Nature of the experiment: SDMA in-cell western assay, HAP1 MTAP-deleted. Type of experiment: cell-based. As to conditions: for IC50: Homo sapiens, HAP1, SDMA in-cell western, HAP1 MTAP-deleted; for MTAP intact/deleted ratio: SDMA in-cell western. The essentials: (§1)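 Compounds were tested in HAP1 cells differing only in MTAP status (endogenous expression versus null). Cellular SDMA levels were then measured by in-cell western, giving an IC50 in each background.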

Experiment [3] deals with T1, PRMT5. Nature of the experiment: PRMT5 biochemical IC50 assay with MTA as cofactor. To be noted: PRMT5, MTA as cofactor; read-out: MTA IC50.
The target in experiment [4] is T1, PRMT5. In words: PRMT5 biochemical IC50 assay with no cofactor. As to conditions: PRMT5, no cofactor. An excerpt: Table 1 indicates IC50 values (μM) against PRMT5 for exemplary compounds in the presence of SAM as cofactor, with no cofactor, and with MTA as cofactor, respectively (columns 4-6). […] Ki values can be calculated from the IC50 values as described in the Examples section. As detailed in the Examples section, for the assay performed in the presence of SAM, IC50=Ki×1.5 (Ki=IC50/1.5).

In experiment [5] the test system is HAP1 MTAP-intact cell line. Nature of the experiment: SDMA in-cell western assay, HAP1 MTAP-intact. Type of experiment: cell-based. To be noted: Homo sapiens, HAP1, SDMA in-cell western, HAP1 MTAP-intact; read-out: MTAP HAP1 intact IC50. The gist of the method:
as §1

Experiment [6] concerns HAP1 MTAP-deleted cell line. In words: Viability assay, MTAP-deleted cell line. Type of experiment: cell-based. To be noted: Homo sapiens, read-out: HAP1 MTAP deleted viability. An excerpt: Table 1 additionally indicates IC50 values in a viability assay for the MTAP-deleted cell line (column 10), indicating the effect of treatment with compound on cell survival.
Setting [7] is: read-out: HAP 1 MTAP deleted IC50.
[8] abbreviates: IC50 ratio HAP1 MTAP-intact / HAP1 MTAP-deleted.
Setting [9] is: HAP1, viability IC50, MTAP-deleted cell line.
[10] abbreviates: HAP1, viability assay, MTAP-deleted cell line.
[11] abbreviates: read-out: HAP1 MTAP deleted IC50.
[12] abbreviates: HAP1, viability assay, HAP1 MTAP-deleted.
[13] abbreviates: IC50 ratio HAP1 MTAP-intact vs HAP1 MTAP-deleted.
[14] abbreviates: read-out: No Cofactor/ rel IC50.

A value given as a limit tells only on which side of the number the result lay.

T1 sequence (O14744 whole entry): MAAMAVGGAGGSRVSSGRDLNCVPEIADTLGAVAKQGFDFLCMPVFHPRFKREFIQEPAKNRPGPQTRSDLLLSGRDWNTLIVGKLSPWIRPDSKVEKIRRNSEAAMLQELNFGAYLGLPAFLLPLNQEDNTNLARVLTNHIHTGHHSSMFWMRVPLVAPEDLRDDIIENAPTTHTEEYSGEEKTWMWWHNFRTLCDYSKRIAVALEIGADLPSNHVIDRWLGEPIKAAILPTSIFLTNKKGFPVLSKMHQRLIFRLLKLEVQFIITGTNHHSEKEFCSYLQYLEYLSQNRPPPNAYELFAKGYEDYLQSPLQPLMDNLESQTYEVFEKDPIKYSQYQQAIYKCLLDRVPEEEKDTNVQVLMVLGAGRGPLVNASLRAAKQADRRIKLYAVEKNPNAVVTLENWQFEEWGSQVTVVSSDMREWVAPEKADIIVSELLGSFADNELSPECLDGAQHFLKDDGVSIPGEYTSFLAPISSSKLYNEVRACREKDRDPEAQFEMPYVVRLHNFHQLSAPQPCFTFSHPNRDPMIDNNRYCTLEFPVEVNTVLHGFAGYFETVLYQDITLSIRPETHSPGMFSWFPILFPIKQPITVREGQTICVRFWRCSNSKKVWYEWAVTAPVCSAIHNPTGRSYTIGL
T1 sequence (Q9BQA1 whole entry partner): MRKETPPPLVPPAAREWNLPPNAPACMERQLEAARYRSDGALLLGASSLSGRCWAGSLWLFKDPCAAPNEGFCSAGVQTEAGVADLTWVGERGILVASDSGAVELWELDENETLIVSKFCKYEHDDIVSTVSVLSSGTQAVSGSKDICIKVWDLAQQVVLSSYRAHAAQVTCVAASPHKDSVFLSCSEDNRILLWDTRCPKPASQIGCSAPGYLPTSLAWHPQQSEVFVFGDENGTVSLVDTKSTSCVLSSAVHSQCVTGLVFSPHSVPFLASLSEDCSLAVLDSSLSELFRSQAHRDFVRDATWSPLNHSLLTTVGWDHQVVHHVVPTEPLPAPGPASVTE

For the compound `Cc1cc([C@@H]2CC[C@@H](C)CN2C(=O)C(=O)Nc2cnc(N)c(C)c2)ccc1O` (single isomer, unassigned) [Compound 572], the IC50 in experiment [1] is below 50 nM; in experiment [2] (setting [7]) it was below 100 nM; in experiment [3], 50 to 500 nM; in experiment [4] (read-out: No Cofactor/rel IC50), 50 to 500 nM; in experiment [5], below 100 nM; in experiment [6] (setting [9]), below 1000 nM. The MTAP intact/deleted ratio entry in experiment [2] (setting [8]) is “A (an IC50 ratio greater than or equal to 10 fold)”.
Turning to `COc1ncc(NC(=O)C(=O)N2C[C@H](C)CC[C@H]2c2cccc3[nH]ncc23)cc1C(N)=O` (single isomer, unassigned) [Compound 926], the IC50 in experiment [1] is above 500 nM; in experiment [2] (setting [7]), above 1000 nM; in experiment [3] it was above 500 nM; in experiment [4] (read-out: No Cofactor/rel IC50), above 500 nM; in experiment [5] it was above 1000 nM; in experiment [6] (setting [10]) it was above 10000 nM. Moreover, the MTAP intact/deleted ratio result in experiment [2] (setting [8]) is “C (an IC50 ratio of less than 3 fold)”.
Turning to `C[C@@H]1CC[C@@H](c2ccc(-c3ccn[nH]3)cc2)N(C(=O)C(=O)Nc2cncc(C(N)=O)c2)C1` (racemic) [Compound 524, 5-[[2-[(2S,5R)-5-methyl-2-[4-(1H-pyrazol-5-yl)phenyl]-1-piperidyl]-2-oxo-acetyl]amino]pyridine-3-carboxamide], the IC50 in experiment [1] is 50 to 500 nM; in experiment [2] (setting [11]), 100 to 1000 nM; in experiment [3] it was 50 to 500 nM; in experiment [4] (read-out: No Cofactor/rel IC50) it was 50 to 500 nM; in experiment [5], above 1000 nM; in experiment [6] (setting [10]), 1000 to 10000 nM. The MTAP intact/deleted ratio entry in experiment [2] (setting [8]) was “A (an IC50 ratio greater than or equal to 10 fold)”.
Consider `CCc1cc(NC(=O)C(=O)N2C[C@H](C)CC[C@H]2c2ccc3[nH]c(=O)ccc3c2)cnc1N` (single isomer, unassigned) [Compound 819], for which the IC50 in experiment [1] was above 500 nM; in experiment [2] (setting [11]), 100 to 1000 nM; in experiment [3], above 500 nM; in experiment [4] (read-out: No Cofactor/rel IC50), above 500 nM; in experiment [5] it was above 1000 nM; in experiment [6] (setting [12]), 1000 to 10000 nM. Also, the MTAP intact/deleted ratio entry in experiment [2] (setting [8]) is “A (an IC50 ratio greater than or equal to 10 fold)”.
Regarding `C[C@H]1CC[C@H](c2cc(Cl)cc(C(F)(F)F)c2)N(C(=O)C(=O)Nc2cncc(C(N)=O)c2)C1` (single isomer, unassigned) [Compound 646], the IC50 in experiment [1] was below 50 nM; in experiment [2] (setting [7]) it was 100 to 1000 nM; in experiment [3] it was below 50 nM; in experiment [4] (read-out: No Cofactor/rel IC50), 50 to 500 nM; in experiment [5], above 1000 nM; in experiment [6] (setting [9]), 1000 to 10000 nM. In experiment [2] (setting [8]), the MTAP intact/deleted ratio entry is recorded as “A (an IC50 ratio greater than or equal to 10 fold)”.
With `C[C@@H]1CC[C@@H](c2ccc(Cl)cc2)N(C(=O)C(=O)Nc2cncc(C(N)=O)c2)C1` (racemic) [Compound 212, rac-5-[[2-[(2S,5R)-2-(4-chlorophenyl)-5-methyl-1-piperidyl]-2-oxo-acetyl]amino]pyridine-3-carboxamide], the IC50 in experiment [1] was 50 to 500 nM; in experiment [2] (setting [11]), below 100 nM; in experiment [3] it was below 50 nM; in experiment [4] (read-out: No Cofactor/rel IC50), 50 to 500 nM; in experiment [5] it was above 1000 nM; in experiment [6] (setting [10]), 1000 to 10000 nM. Moreover, the MTAP intact/deleted ratio result in experiment [2] (setting [8]) is “A (an IC50 ratio greater than or equal to 10 fold)”.
Take `Cc1cccc2cc([C@@H]3CC[C@@H](C)CN3C(=O)C(=O)Nc3cncc(C(N)=O)c3)cnc12` (racemic) [Compound 215, rac-5-{2-[(2R,5S)-5-Methyl-2-(8-methylquinolin-3-yl)piperidin-1-yl]-2-oxoacetamido}pyridine-3-carboxamide]: the IC50 in experiment [1] was above 500 nM; in experiment [2] (setting [11]), above 1000 nM; in experiment [3], 50 to 500 nM; in experiment [4] (read-out: No Cofactor/rel IC50) it was above 500 nM; in experiment [5], above 1000 nM; in experiment [6] (setting [10]), above 10000 nM. In addition, the MTAP intact/deleted ratio result in experiment [2] (setting [8]) is “B (an IC50 ratio greater than or equal to 3 fold but lower than 10 fold)”.
Regarding `CCc1cc(NC(=O)C(=O)N2C[C@@H](C)CC[C@@H]2c2ccc(N3CCN(C)CC3)nc2)cnc1N` (single isomer, unassigned) [Compound 1103], the IC50 in experiment [1] is 50 to 500 nM; in experiment [2] (setting [11]) it was below 100 nM; in experiment [3] it was below 50 nM; in experiment [4] (read-out: No Cofactor/rel IC50), below 50 nM; in experiment [5], 100 to 1000 nM; in experiment [6] (setting [10]), below 1000 nM. In addition, in experiment [2] (setting [13]), the MTAP intact/deleted ratio entry is “A (an IC50 ratio greater than or equal to 10 fold)”.
For `C[C@H]1CN(C(=O)C(=O)Nc2cncc(C(N)=O)c2)[C@H](c2ccc(F)cc2)CC1(F)F` (single isomer, unassigned) [Compound 731], the IC50 was 50 to 500 nM in experiment [1]; below 100 nM in experiment [2] (setting [11]); below 50 nM in experiment [3]; 50 to 500 nM in experiment [4] (read-out: No Cofactor/rel IC50); above 1000 nM in experiment [5]; 1000 to 10000 nM in experiment [6] (setting [12]). Also, in experiment [2] (setting [8]), the MTAP intact/deleted ratio result is recorded as “A (an IC50 ratio greater than or equal to 10 fold)”.
Turning to `Cc1cc(NC(=O)C(=O)N2C[C@H]3CC[C@H](C3)[C@@H]2c2ccccc2)cnc1N` (single isomer, unassigned) [Compound 63], the IC50 is above 500 nM in experiment [1]; above 1000 nM in experiment [2] (setting [7]); above 500 nM in experiment [3]; above 500 nM in experiment [4] (setting [14]); above 1000 nM in experiment [5]; above 10000 nM in experiment [6] (setting [10]). Besides, the “MTAP intact/deleted ratio” value in experiment [2] (setting [8]) is recorded as “C (an IC50 ratio of less than 3 fold)”.
`CCOc1ncc(NC(=O)C(=O)N2C[C@@H](C)CC[C@@H]2c2ccccc2)cc1C(N)=O` (single isomer, unassigned) [Compound 764]: the IC50 in experiment [1] is 50 to 500 nM; in experiment [2] (setting [11]) it was 100 to 1000 nM; in experiment [3], below 50 nM; in experiment [4] (read-out: No Cofactor/rel IC50), 50 to 500 nM; in experiment [5], above 1000 nM; in experiment [6] (setting [12]), 1000 to 10000 nM. The MTAP intact/deleted ratio entry in experiment [2] (setting [8]) was “A (an IC50 ratio greater than or equal to 10 fold)”.
Consider `Cc1cc(NC(=O)C(=O)N2C[C@H](C)CC[C@H]2c2cccc3c2CC(=O)N3)cnc1N` (racemic) [Compound 714, N-(6-Amino-5-methyl-3-pyridyl)-2-[(2S,5R)-5-methyl-2-(2-oxoindolin-4-yl)-1-piperidyl]-2-oxo-acetamide], for which the IC50 in experiment [1] is 50 to 500 nM; in experiment [2] (setting [11]) it was 100 to 1000 nM; in experiment [3] it was below 50 nM; in experiment [4] (read-out: No Cofactor/rel IC50) it was 50 to 500 nM; in experiment [5], above 1000 nM; in experiment [6] (setting [12]), 1000 to 10000 nM. In experiment [2] (setting [8]), the MTAP intact/deleted ratio entry is “A (an IC50 ratio greater than or equal to 10 fold)”.
For `Cc1cc(NC(=O)C(=O)N2C[C@H](C)CC[C@H]2c2cccc(C3CCN(C)CC3)c2)cnc1N` (racemic) [Compound 1149, N-(6-amino-5-methylpyridin-3-yl)-2-(5-methyl-2-(3-(1-methylpiperidin-4-yl)phenyl)piperidin-1-yl)-2-oxoacetamide], the IC50 in experiment [1] is 50 to 500 nM; in experiment [2] (setting [11]), below 100 nM; in experiment [3] it was below 50 nM; in experiment [4] (read-out: No Cofactor/rel IC50), 50 to 500 nM; in experiment [5] it was 100 to 1000 nM; in experiment [6] (setting [10]), below 1000 nM. Also, the MTAP intact/deleted ratio entry in experiment [2] (setting [13]) is listed as “A (an IC50 ratio greater than or equal to 10 fold)”.
Turning to `Cc1cc(NC(=O)C(=O)N2C[C@H](C)CC[C@H]2c2ccccc2)cnc1C` (single isomer, unassigned) [Compound 254], the IC50 in experiment [1] was below 50 nM; in experiment [2] (setting [11]), 100 to 1000 nM; in experiment [3], below 50 nM; in experiment [4] (read-out: No Cofactor/rel IC50), 50 to 500 nM; in experiment [5], above 1000 nM; in experiment [6] (setting [10]) it was 1000 to 10000 nM. Further, the MTAP intact/deleted ratio entry in experiment [2] (setting [8]) is given as “A (an IC50 ratio greater than or equal to 10 fold)”.
With `Cc1ccc([C@@H]2CC[C@@H](C)CN2C(=O)C(=O)Nc2cncc(C(N)=O)c2)cc1Cl` (racemic) [Compound 179, rac-5-{2-[(2R,5S)-2-(3-Chloro-4-methylphenyl)-5-methylpiperidin-1-yl]-2-oxoacetamido}pyridine-3-carboxamide], the IC50 was 50 to 500 nM in experiment [1]; below 100 nM in experiment [2] (setting [11]); below 50 nM in experiment [3]; 50 to 500 nM in experiment [4] (read-out: No Cofactor/rel IC50); above 1000 nM in experiment [5]; 1000 to 10000 nM in experiment [6] (setting [10]). Moreover, the MTAP intact/deleted ratio result in experiment [2] (setting [8]) is “A (an IC50 ratio greater than or equal to 10 fold)”.
On to `Cc1ncc(NC(=O)C(=O)N2C[C@@H](C)CC[C@@H]2c2ccc3sc(C4CCN(C)CC4)nc3c2)cc1C(F)F` [Compound 1301], for which the IC50 was below 50 nM in experiment [1]; below 100 nM in experiment [2] (setting [7]); below 50 nM in experiment [3]; below 50 nM in experiment [4] (setting [14]); below 100 nM in experiment [5]; below 1000 nM in experiment [6] (HAP1, viability, HAP1 MTAP-deleted cell line). Further, the “MTAP intact/deleted ratio” value in experiment [2] (setting [8]) is reported as “A (an IC50 ratio greater than or equal to 10 fold)”.
